Measured values as given in patent publication US20240390448A1, “USE OF TRADITIONAL CHINESE MEDICINE COMPOSITION IN PREPARATION OF DRUGS FOR TREATING NEUROGENIC PULMONARY EDEMA” (SHANDONG NEW TIME PHARMACEUTICAL CO., LTD., priority 2021, published 2024).

Test system: spinal cord injury-induced neurogenic pulmonary edema
Experiment: Model of spinal cord injury-induced neurogenic pulmonary edema (laminectomy and spinal cord injury)
Assay type: in vivo, ICR mice
Settings: mice, example 1 granule 18 g/kg intragastric, dexamethasone 0.025 mg/kg intramuscular, 2 consecutive days from 24 h after molding, lungs taken on 3rd day, n = 8, x ± s
Excerpt: It is a typical molding method of an animal with neurogenic pulmonary edema by performing laminectomy on a rate to cause spine injury and thus inducing pulmonary edema of the mouse. The molding method is simple and easy to implement and high in success rate.
4-6 week old male ICR mice weighed 23-25 g were provided by the Lunan Pharmaceutical Co., Ltd and adaptively fed for one week before an experiment.
40 mice were taken and randomly divided into a sham surgery group, a model group, a dexamethasone group, an example 1 granule group, and a dexamethasone+example 1 granule group, with 8 mice in each group. The rats in the sham surgery group were subjected to laminectomy without spinal cord injury, while the rats in the model group and each administration group were subjected to laminectomy and spinal cord injury. […] The animals were anesthetized and sacrificed on the 3rd of the molding, the lungs were taken out, the wet weight was weighed, the lungs were placed in a 60° C. oven for drying for 48 h and taken out, the dry weight was weighed, and a ratio of wet weight/dry weight was calculated.

C[C@@H]1C[C@H]2[C@@H]3CCC4=CC(=O)C=C[C@]4(C)[C@@]3(F)[C@@H](O)C[C@]2(C)[C@@]1(O)C(=O)CO [Dexamethasone, dexamethasone]
Lung wet weight/dry weight: 4.92 ± 0.13
